According to patent US20130244929A1 (priority 2010, published 2013):
Where two headings read alike, the source gives them in different places.

Columns and labels:
[1] = from COC(=O)[C@H](Cc1ccc(OC)c(B2OC(C)(C)C(C)(C)O2)c1)NC(=O)[C@H](C)NC(=O)[C@@H](NC(=O)OC(C)(C)C)c1ccc(OC)c(I)c1; cc_pd bond; PdCl2(dppf); acetonitrile; 70.3 mM; 44.0 °C; 3.0 h
SpsB = biological target: T1, SpsB (Staphylococcus aureus, UniProt P0A070); assay: Inhibition of SpsB enzyme activity (fluorescence-based assay, bacterial membrane fraction); assay type: biochemical
T1 construct: using a bacterial membrane fraction as a source of SpsB; from tissue
T1 sequence (P0A070 1-191): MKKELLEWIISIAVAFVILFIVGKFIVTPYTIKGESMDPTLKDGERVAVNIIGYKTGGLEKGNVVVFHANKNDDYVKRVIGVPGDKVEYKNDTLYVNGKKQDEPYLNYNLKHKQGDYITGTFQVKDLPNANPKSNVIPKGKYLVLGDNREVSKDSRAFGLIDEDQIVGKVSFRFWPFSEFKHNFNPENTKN
Procedure, shortened: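 Membrane fraction from bacteria supplied SpsB (0.6 mg/mL final protein), added last to start reactions with 20 μM lipopeptide substrate decanoyl-K(DABCYL)-TPTAKA↓ASKKD-D(EDANS)-NH2 (Km≈5 μM). Cleavage was followed as rising fluorescence, excitation 340/emission 460 nm.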

[2] = system: MB 5393 (COL), a methicillin-resistant S. aureus strain; assay: Determination of minimum and synergistic inhibitory concentration; assay type: cell-based; details: for SIC: presence of imipenem (4 μg/mL); for MIC: Staphylococcus aureus
Procedure, shortened: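 Broth microdilution: two-fold compound dilutions (final 64 to 0.0313 μg/mL) tested with and without subinhibitory imipenem (4 μg/mL) against MRSA COL at ~5×10^5 CFU/mL, 37°C, 22-24 hr stationary. MIC is lowest concentration preventing visible growth without imipenem; SIC same with imipenem.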

[3] = MRSA COL, absence of imipenem, 22 hours, read-out: MIC

Compound `COC(=O)[C@@H]1Cc2ccc(OC)c(c2)-c2cc(ccc2OC)[C@H](NC(=O)OC(C)(C)C)C(=O)N[C@@H](C)C(=O)N1` has a ring closure, yield of all isomers [1] of 20%.

With `CCCCCCCCCc1ccc(-c2ccc3sc(C(=O)NCCC(=O)N[C@@H](CCCCN)C(=O)N(C)[C@@H]4C(=O)N[C@@H](C)C(=O)N[C@H](C(=O)O)Cc5ccc(O)c(c5)-c5cc4ccc5O)cc3c2)cc1` [EXAMPLE 45] the IC50 (SpsB) was < 10 nM, the SIC ([2]; MRSA COL, 22 hours) was “G (G: SIC <0.0625)” and the MIC ([2]; MRSA, 22 h) was 1 to 8 µg/mL.

In the case of `CCC[C@H]1CC[C@H](c2ccc(-c3ccc(C(=O)NCCC(=O)N[C@@H](CCCCN)C(=O)N(C)[C@@H]4C(=O)N[C@@H](C)C(=O)N[C@H](C(=O)O)Cc5ccc(O)c(c5)-c5cc4ccc5O)cc3)cc2)CC1` [EXAMPLE 46], the IC50 (SpsB) is reported as < 10 nM, the SIC ([2]; MRSA COL, 22 hours) is reported as “G (G: SIC <0.0625)” and the MIC ([2]; MRSA, 22 h) is reported as < 1 µg/mL.

With `CCCCCCCCCc1ccc(-c2ccc3cc(C(=O)NCCC(=O)N[C@@H](CCCCN)C(=O)N(C)[C@@H]4C(=O)N[C@@H](C)C(=O)N[C@H](C(=O)O)Cc5ccc(O)c(c5)-c5cc4ccc5O)sc3c2)cc1` [EXAMPLE 47] the IC50 (SpsB) was < 10 nM, the SIC ([2]; MRSA COL, 22 hours) was “G (G: SIC <0.0625)” and the MIC ([2]; MRSA, 22 h) was 1 to 8 µg/mL.

In the case of `CCCc1ccc(-c2ccc(C(=O)NCCC(=O)N[C@@H](CCCCNC=N)C(=O)N(C)[C@@H]3C(=O)N[C@@H](C)C(=O)N[C@H](C(=O)O)Cc4ccc(O)c(c4)-c4cc3ccc4O)cc2)cc1` [EXAMPLE 48], the IC50 (SpsB) is reported as < 10 nM, the SIC ([2]; MRSA COL, 22 hours) is reported as “H (H: SIC 0.062-1)” and the MIC ([2]; MRSA, 22 h) is reported as 1 to 8 µg/mL.

For `C[C@@H]1NC(=O)[C@@H](N(C)C(=O)[C@H](CCCCN)NC(=O)CCNC(=O)c2ccc(-c3ccc(C4CCCCC4)cc3)cc2)c2ccc(O)c(c2)-c2cc(ccc2O)C[C@@H](C(=O)O)NC1=O` [EXAMPLE 49], the IC50 (SpsB) was < 10 nM, the SIC ([2]; MRSA COL, 22 hours) was “G (G: SIC <0.0625)” and the MIC ([2]; MRSA, 22 h) was < 1 µg/mL.

In the case of `CCCCCCCCCc1ccc(-c2ccc(C(=O)NCCC(=O)N[C@@H](CCCCO)C(=O)N(C)[C@@H]3C(=O)N[C@@H](C)C(=O)N[C@H](C(=O)O)Cc4ccc(O)c(c4)-c4cc3ccc4O)cc2)cc1` [EXAMPLE 50], the IC50 (SpsB) is reported as < 10 nM, the SIC ([2]; MRSA COL, 22 hours) is reported as “H (H: SIC 0.062-1)” and the MIC [2, 3] is reported as > 8 µg/mL.

For `CCCCc1ccc(-c2ccc(C(=O)NCCC(=O)N[C@@H](CCCCN)C(=O)N(C)[C@@H]3C(=O)N[C@@H](C)C(=O)N[C@H](C(=O)O)Cc4ccc(O)c(c4)-c4cc3ccc4O)cc2)cc1` [EXAMPLE 51], the IC50 (SpsB) was < 10 nM, the SIC ([2]; MRSA COL, 22 hours) was “G (G: SIC <0.0625)” and the MIC ([2]; MRSA, 22 h) was < 1 µg/mL.

For `CCCCCCCCCc1ccc(-c2ccc(C(=O)NCCC(=O)N[C@@H](CCCCN)C(=O)N(C)[C@@H]3C(=O)N[C@@H](C)C(=O)N[C@H](C(=O)O)Cc4ccc(O)c(c4)-c4cc3ccc4O)c3ccccc23)cc1` [EXAMPLE 52], the IC50 (SpsB) was < 10 nM, the SIC ([2]; MRSA COL, 22 hours) was “G (G: SIC <0.0625)” and the MIC ([2]; MRSA, 22 h) was 1 to 8 µg/mL.

With `CCCc1ccc(-c2ccc(C(=O)NCCC(=O)N3CC(CCN)C[C@H]3C(=O)N(C)[C@@H]3C(=O)N[C@@H](C)C(=O)N[C@H](C(=O)O)Cc4ccc(O)c(c4)-c4cc3ccc4O)cc2)cc1` (stereo partly shown) [EXAMPLE 53] the IC50 (SpsB) was < 10 nM, the SIC ([2]; MRSA COL, 22 hours) was “G (G: SIC <0.0625)” and the MIC ([2]; MRSA, 22 h) was < 1 µg/mL.

With `CCCCCCCCCc1ccc(-c2ccc(C(=O)NCCC(=O)N[C@@H](CCCCN)C(=O)N(C)[C@@H]3C(=O)N[C@@H](C)C(=O)N[C@H](C(=O)O)Cc4ccc(O)c(c4)-c4cc3ccc4O)cn2)cc1` [EXAMPLE 54] the IC50 (SpsB) was < 10 nM, the SIC ([2]; MRSA COL, 22 hours) was “G (G: SIC <0.0625)” and the MIC ([2]; MRSA, 22 h) was < 1 µg/mL.

In the case of `CCCc1ccc(-c2ccc(C(=O)NCCC(=O)N[C@@H](CCCN)C(=O)N(C)[C@@H]3C(=O)N[C@@H](C)C(=O)N[C@H](C(=O)O)Cc4ccc(O)c(c4)-c4cc3ccc4O)cc2)cc1` [EXAMPLE 55], the IC50 (SpsB) is reported as < 10 nM, the SIC ([2]; MRSA COL, 22 hours) is reported as “H (H: SIC 0.062-1)” and the MIC ([2]; MRSA, 22 h) is reported as < 1 µg/mL.

In the case of `COc1ccc2cc1-c1cc(ccc1OC)[C@H](N(C)C(=O)[C@H](CCCCN)NC(=O)CCNC(=O)c1ccc(-c3ccc(CCCCCCCCC(C)(C)O)cc3)cc1)C(=O)N[C@@H](C)C(=O)N[C@H](C(=O)O)C2` [EXAMPLE 56], the IC50 (SpsB) is reported as < 10 nM, the SIC ([2]; MRSA COL, 22 hours) is reported as “H (H: SIC 0.062-1)” and the MIC ([2]; MRSA, 22 h) is reported as 1 to 8 µg/mL.

For `CCCCCCCCCc1ccc(-c2ccc(C(=O)NCCC(=O)N[C@@H](CCCCN)C(=O)N(C)[C@@H]3C(=O)N[C@@H](C)C(=O)N[C@H](C(=O)O)Cc4ccc(O)c(c4)-c4cc3ccc4O)cc2C)cc1` [EXAMPLE 58], the IC50 (SpsB) was < 10 nM, the SIC ([2]; MRSA COL, 22 hours) was “G (G: SIC <0.0625)” and the MIC ([2]; MRSA, 22 h) was < 1 µg/mL.

In the case of `C[C@@H]1NC(=O)[C@@H](N(C)C(=O)[C@@H]2CCCN2C(=O)CCNC(=O)c2ccc(CCCCCCCCc3ccccc3)cc2)c2ccc(O)c(c2)-c2cc(ccc2O)C[C@@H](C(=O)O)NC1=O` [EXAMPLE 59], the IC50 (SpsB) is reported as < 10 nM, the SIC ([2]; MRSA COL, 22 hours) is reported as “H (H: SIC 0.062-1)” and the MIC ([2]; MRSA, 22 h) is reported as 1 to 8 µg/mL.

In the case of `CCCCCCCCCCc1ccc2cc(C(=O)NCCC(=O)N[C@@H](CCCC(=O)O)C(=O)N(C)[C@@H]3C(=O)N[C@@H](C)C(=O)N[C@H](C(=O)O)Cc4ccc(O)c(c4)-c4cc3ccc4O)ccc2c1` [EXAMPLE 60], the IC50 (SpsB) is reported as 10 to 50 nM, the SIC ([2]; MRSA COL, 22 hours) is reported as “G (G: SIC <0.0625)” and the MIC [2, 3] is reported as 1 to 8 µg/mL.

For `CCCCCCCc1ccc2cc(C(=O)NCCC(=O)N[C@@H](CCCCN)C(=O)N(C)[C@@H]3C(=O)N[C@@H](C)C(=O)N[C@H](C(=O)O)Cc4ccc(O)c(c4)-c4cc3ccc4O)cnc2c1` [EXAMPLE 61], the IC50 (SpsB) was 10 to 50 nM, the SIC ([2]; MRSA COL, 22 hours) was “H (H: SIC 0.062-1)” and the MIC ([2]; MRSA, 22 h) was < 1 µg/mL.

In the case of `CCCCCCCCCCc1ccc2nc(C(=O)NCCC(=O)N[C@@H](CCCCN)C(=O)N(C)[C@@H]3C(=O)N[C@@H](C)C(=O)N[C@H](C(=O)O)Cc4ccc(O)c(c4)-c4cc3ccc4O)ccc2c1` [EXAMPLE 62], the IC50 (SpsB) is reported as 10 to 50 nM, the SIC ([2]; MRSA COL, 22 hours) is reported as “G (G: SIC <0.0625)” and the MIC [2, 3] is reported as < 1 µg/mL.

In the case of `CCCCCCCCCc1ccc(-c2cnc(C(=O)NCCC(=O)N[C@@H](CCCCN)C(=O)N(C)[C@@H]3C(=O)N[C@@H](C)C(=O)N[C@H](C(=O)O)Cc4ccc(O)c(c4)-c4cc3ccc4O)nc2)cc1` [EXAMPLE 63], the IC50 (SpsB) is reported as 10 to 50 nM, the SIC ([2]; MRSA COL, 22 hours) is reported as “G (G: SIC <0.0625)” and the MIC ([2]; MRSA, 22 h) is reported as < 1 µg/mL.

With `C[C@@H]1NC(=O)[C@@H](N(C)C(=O)[C@H](CCCCN)NC(=O)CCNC(=O)c2coc(CCCCCCCCc3ccccc3)n2)c2ccc(O)c(c2)-c2cc(ccc2O)C[C@@H](C(=O)O)NC1=O` [EXAMPLE 64] the IC50 (SpsB) was 10 to 50 nM, the SIC ([2]; MRSA COL, 22 hours) was “G (G: SIC <0.0625)” and the MIC ([2]; MRSA, 22 h) was < 1 µg/mL.

With `CCCCCCCCCc1ccc(-c2cccc3c(C(=O)NCCC(=O)N[C@@H](CCCCN)C(=O)N(C)[C@@H]4C(=O)N[C@@H](C)C(=O)N[C@H](C(=O)O)Cc5ccc(O)c(c5)-c5cc4ccc5O)cnn23)cc1` [EXAMPLE 65] the IC50 (SpsB) was 10 to 50 nM, the SIC ([2]; MRSA COL, 22 hours) was “G (G: SIC <0.0625)” and the MIC ([2]; MRSA, 22 h) was 1 to 8 µg/mL.

For `CCCCCCCCCc1ccc(-c2ccc(C(=O)NCCC(=O)N[C@@H](CCCCN)C(=O)N(C)[C@@H]3C(=O)N[C@@H](C)C(=O)N[C@H](C(=O)O)Cc4ccc(O)c(c4)-c4cc3ccc4O)c(F)c2)cc1` [EXAMPLE 66], the IC50 (SpsB) was 10 to 50 nM, the SIC ([2]; MRSA COL, 22 hours) was “G (G: SIC <0.0625)” and the MIC ([2]; MRSA, 22 h) was < 1 µg/mL.

For `CCCCCCCCCCc1ccc2ccc(C(=O)NCCC(=O)N3CCC[C@H]3C(=O)N(C)[C@@H]3C(=O)N[C@@H](C)C(=O)N[C@H](C(=O)O)Cc4cccc(c4)-c4cc3ccc4OC)cc2c1` [EXAMPLE 67], the IC50 (SpsB) was 10 to 50 nM, the SIC ([2]; MRSA COL, 22 hours) was “I (I: SIC >1)” and the MIC [2, 3] was > 8 µg/mL.
